Assay results reported in US20240287048A1, “SUBSTITUTED ACYL SULFONAMIDES FOR TREATING CANCER” (The Broad Institute, Inc., priority 2020, published 2024).

Experiments:
[1] = system: ESR1 transcription in MVLN cells; experiment: Repression of ESR1 transcription, MVLN luciferase reporter assay; assay type: cell-based; details: Homo sapiens, luciferase signal after 24 h, read-out: MVLN reporter assay, IC50[M] (arithmetic mean)
Text: KAT6A controls transcription of the ESR1 gene in breast cancer cells. Compound treatment that interferes with this mechanism was quantified using MVLN cells. These cells constitutively express the ER and are stably transfected with the luciferase (LUC) reporter gene and the corresponding hormone responsive element derived from the 5′-flanking region of the Xenopus Vitellogenin A2 gene (Pons et al., 1990, Demirpense et al., 1993, Joyeux et al., 1993). The repressive effect on ERα transcription activity of a test chemical is directly related to the luciferase measured in the lysate of treated MVLN cells.
Each sample was prepared as duplicate and rim wells were excluded. For luciferase signal determination 100 μl of a 1:1 mixture of Steadylite plus (Perkin Elmer; 6016759) and assay medium was added after 24 h for 15 minutes and measured in Victor X3 (Perkin Elmer). To exclude any effects caused by cell loss during the treatment, cell density was determined using Alamar Blue (Invitrogen; DAL1100). Prior to the luciferase measurement 10 μl Alamar Blue were added to each well and the plates were incubated for 2 h in the incubator. Then fluorescence was measured with Victor X3 (Perkin Elmer) at 530 nm/590 nm.

KAT6B = biological target: T1, KAT6B (Homo sapiens, UniProt Q8WYB5); experiment: Kat6b activity assay (TR-FRET, acetylation of biotinylated histone H4 peptide); assay type: biochemical; details: recombinant human GST-tagged Kat6b (431-end), 30 mins at 22° C., read-out: KAT6B activity assay IC50 [mol/l] (arithmetic mean)
T1 construct: fused on or other part: N-terminal GST tag
Text: Kat6b inhibitory activities of the compounds described in the present invention were quantified using a Fluorescence Resonance Energy Transfer (TR-FRET) assay which measures acetylation of a synthetic, biotinylated Histone-H4-derived peptide by the enzyme.
Recombinant human GST-tagged Kat6b protein (431-end, N-terminal GST-tag), purified from Baculovirus-infected insect cells (Sf9), was purchased from SignalChem (#K315-381BG). Histone H4 peptide (amino acids 1-24, […]-VLRD-K(Btn)-amide), which was used as substrate, was synthesized by Biosyntan GmbH, Berlin, Germany. Acetyl Coenzyme A was purchased from Sigma-Aldrich (#A-2056).
(§1) Kat6b was incubated for 30 mins at 22° C. in the presence of different concentrations of test substances (0 μM, and within the range 0.01-20 μM) in assay buffer [25 mM Tris/HCl pH 8, 1 mM EGTA, 2.5 mM Glutathion, 0.02% Chicken Albumin, 0.05% Pluronic F127, 25 mM NaCl, 500 nM H4 peptide and 600 nM Acetyl Coenzyme A].
The reaction was stopped by addition of Detection Solution (25 mM HEPES pH 7.5, 0.1% BSA, 22 nM SAXL665 (Cisbio #610SAXLE), 100 μM Anacardic Acid (Enzo #ALX-270-381), 1 nM Anti-Histone H4 (ACETYL K8) Antibody (ABCAM #AB15823), 0.5 nM Anti-Rabbit IgG Eu (Perkin Elmer #AD0083).
(§2) The fluorescence emission at 620 nm and 665 nm after excitation at 330-350 nm was measured in a TR-FRET measuring instrument, for instance a Rubystar or a Pherastar (both from BMG Lab Technologies, Offenburg, Germany) or a Viewlux (Perkin-Elmer). The ratio of the emission at 665 nm and at […] was used as indicator of the amount of acetylated peptide.
(§3) The resulting data (ratio) were normalized, taking 0% inhibition as the mean value of control measurements where all reagents were included. In this case 50 nl DMSO were used instead of compounds. […] IC50 values were determined by regression analysis based on a 4 parameter equation (minimum, maximum, ICM, Hill; Y=Max+(Min−Max)/(1+(X/ICso) Hill) using the Screener Software (Genedata).

KAT6A = biological target: T2, KAT6A (Homo sapiens, UniProt Q92794); experiment: Kat6a activity assay (TR-FRET, acetylation of biotinylated histone H4 peptide); assay type: biochemical; details: recombinant human His-tagged Kat6a (amino acids 194-810), 60 mins at 22° C., read-out: KAT6A-DPF/HAT domain IC50 [mol/l] (arithmetic mean)
T2 construct: Recombinant human His-tagged Kat6a protein (amino acids 194-810); His; made in house; host or cells: Baculovirus-infected Sf9 insect cells
Text: Kat6a inhibitory activities of the compounds described in the present invention were quantified using a Fluorescence Resonance Energy Transfer (TR-FRET) assay which measures acetylation of a synthetic, biotinylated Histone-H4-derived peptide by the enzyme.
Recombinant human His-tagged Kat6a protein (amino acids 194-810), was purified in-house from Baculovirus-infected insect cells (Sf9). Histone H4 peptide (amino acids 1-24, […]-VLRD-K(Btn)-amide), which was used as substrate, was synthesized by Biosyntan GmbH, Berlin, Germany. Acetyl Coenzyme A was purchased from Sigma-Aldrich (#A-2056).
as §1, with “Kat6a” for “Kat6b”, “60” for “30”, “220” for “500”
The reaction was stopped by addition of Detection Solution (25 mM HEPES pH 7.5, 0.1% BSA, 22 nM SAXL665 (Cisbio #610SAXLE), 100 μM Anacardic Acid (Enzo #ALX-270-381), 1 nM Anti-Histone H4 (ACETYL K8) Antibody (ABCAM #AB15823) and 0.5 nM Anti-Rabbit IgG Eu (Perkin Elmer #AD0083).
as §2, §3

MDA-MB-436 cells = experiment: Proliferation assay in MDA-MB-436 cells (negative control cell line); assay type: cell-based; details: Homo sapiens, 144 h, Alamar Blue, read-out: MDA-MB-436 proliferation assay, EC50[M] (arithmetic mean)
Text: (§4) For compound characterization cell survival assays were routinely run in two cell lines. ZR-75-1 is a breast carcinoma cell line containing a focal KAT6A amplification and high KAT6A protein expression. Proliferation of this cell line is inhibited upon treatment with KAT6A inhibitors. As a negative control cell line MDA-MB-436 were used. These cells carry a […] deletion of the KAT6A gene, have a low KAT6A protein expression and are not growth inhibited upon treatment with KAT6A inhibitors.
(§5) For measurements cell lines were plated at the below indicated concentration per […] in 96-well plates in a humidified incubator at 37° C. and 5% CO2.
(§6) ZR-75-1 (ATCC, CRL-1500; breast carcinoma); 3000 cells per well; culture medium: RPMI 1640 (Biochrom #FG 1215) medium containing 2.5% FBS (Biochrom #S0615). LCLC-97TM1 (DSMZ, ACC 388; large cell lung carcinoma); 6000 cells per well; culture medium: RPMI 1640 (Biochrom #FG 1215) medium containing 2.5% FBS (Biochrom #S0615). MDA-MB-436 (CLS, 300278; breast adenocarcinoma); 3000 cells per well; culture medium: DMEM/Ham's F12 (Biochrom #FG 4815) medium containing 2.5% FBS (Biochrom #S0615).
(§7) Each sample was prepared as triplicate and rim wells were excluded. Plates were incubated at 37° C. and 5% CO2 for 144 h. Cell viability was measured by adding 10 μL of Alamar Blue Reagent (Invitrogen #DAL 1100) and plates were incubated for 2 h at 37° C. and 5% CO2. Fluorescence was measured at 590 nm wavelength with a Tecan Spark or Victor X3 MTP-Reader (PerkinElmer).

ZR-75-1 cells = experiment: Proliferation assay in ZR-75-1 cells; assay type: cell-based; details: Homo sapiens, 144 h, Alamar Blue, read-out: ZR75-1 proliferation assay, EC50[M] (arithmetic mean)
Text: as §4, §5, §6, §7

LCLC-97TM1 cells = experiment: Proliferation assay in LCLC-97TM1 cells; assay type: cell-based; details: Homo sapiens, 144 h, Alamar Blue, read-out: LCLC97TM1 proliferation assay, EC50[M] (arithmetic mean)
Procedure: as §5, §6, §7

T2 sequence (Q92794 194-810): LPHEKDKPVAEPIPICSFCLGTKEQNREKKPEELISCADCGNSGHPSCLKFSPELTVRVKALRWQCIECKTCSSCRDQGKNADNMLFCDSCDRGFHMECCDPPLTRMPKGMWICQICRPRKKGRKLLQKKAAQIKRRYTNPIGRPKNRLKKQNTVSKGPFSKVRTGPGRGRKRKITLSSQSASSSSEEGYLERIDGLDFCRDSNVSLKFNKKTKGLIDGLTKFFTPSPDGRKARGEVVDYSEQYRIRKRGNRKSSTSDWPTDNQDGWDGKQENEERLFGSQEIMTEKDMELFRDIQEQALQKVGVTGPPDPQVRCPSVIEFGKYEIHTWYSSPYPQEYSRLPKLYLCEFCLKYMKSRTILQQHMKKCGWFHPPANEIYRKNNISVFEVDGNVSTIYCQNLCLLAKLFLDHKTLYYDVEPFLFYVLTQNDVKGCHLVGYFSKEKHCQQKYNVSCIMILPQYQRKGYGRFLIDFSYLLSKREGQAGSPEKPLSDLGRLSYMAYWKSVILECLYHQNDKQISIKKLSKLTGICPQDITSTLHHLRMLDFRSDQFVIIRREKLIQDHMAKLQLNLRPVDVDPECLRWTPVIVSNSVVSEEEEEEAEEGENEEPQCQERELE
T1 sequence (Q8WYB5 723-2073 limits assumed): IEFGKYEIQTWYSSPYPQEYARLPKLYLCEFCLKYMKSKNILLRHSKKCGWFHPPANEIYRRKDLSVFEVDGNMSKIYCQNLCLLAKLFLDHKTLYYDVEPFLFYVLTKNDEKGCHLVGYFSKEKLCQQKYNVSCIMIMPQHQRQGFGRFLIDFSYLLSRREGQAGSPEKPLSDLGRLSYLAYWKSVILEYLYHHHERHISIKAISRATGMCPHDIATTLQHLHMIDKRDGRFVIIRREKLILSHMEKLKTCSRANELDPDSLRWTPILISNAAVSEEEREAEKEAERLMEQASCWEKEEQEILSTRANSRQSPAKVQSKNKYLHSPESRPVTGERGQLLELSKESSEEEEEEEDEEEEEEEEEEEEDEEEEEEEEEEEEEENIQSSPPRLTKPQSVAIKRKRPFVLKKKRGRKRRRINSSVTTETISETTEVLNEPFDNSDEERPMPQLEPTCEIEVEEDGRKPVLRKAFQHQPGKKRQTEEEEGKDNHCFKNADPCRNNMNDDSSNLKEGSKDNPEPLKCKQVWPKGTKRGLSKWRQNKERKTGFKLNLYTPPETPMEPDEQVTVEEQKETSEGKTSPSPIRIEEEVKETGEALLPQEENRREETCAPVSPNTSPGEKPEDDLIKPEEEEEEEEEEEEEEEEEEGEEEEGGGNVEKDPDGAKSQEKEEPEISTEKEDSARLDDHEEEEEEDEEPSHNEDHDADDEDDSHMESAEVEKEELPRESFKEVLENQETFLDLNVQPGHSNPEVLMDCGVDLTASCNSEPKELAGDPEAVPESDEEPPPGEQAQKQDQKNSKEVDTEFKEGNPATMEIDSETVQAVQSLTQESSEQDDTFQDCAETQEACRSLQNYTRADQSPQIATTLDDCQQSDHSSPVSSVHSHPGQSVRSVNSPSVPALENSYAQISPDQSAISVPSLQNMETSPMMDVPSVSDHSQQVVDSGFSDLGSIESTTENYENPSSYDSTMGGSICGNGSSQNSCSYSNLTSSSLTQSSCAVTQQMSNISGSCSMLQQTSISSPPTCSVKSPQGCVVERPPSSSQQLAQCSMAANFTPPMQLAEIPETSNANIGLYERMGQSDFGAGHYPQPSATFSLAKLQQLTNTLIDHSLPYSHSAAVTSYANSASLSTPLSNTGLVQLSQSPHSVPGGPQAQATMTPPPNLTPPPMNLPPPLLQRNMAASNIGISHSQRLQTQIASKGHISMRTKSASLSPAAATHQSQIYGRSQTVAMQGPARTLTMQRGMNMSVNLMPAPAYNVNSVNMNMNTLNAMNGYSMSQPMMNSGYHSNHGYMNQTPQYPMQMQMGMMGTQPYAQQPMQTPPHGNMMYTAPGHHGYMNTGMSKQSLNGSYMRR

Row | SMILES | IC50 [1] [M] | IC50 (KAT6B) [nM] | IC50 (KAT6A) [nM] | EC50 (MDA-MB-436 cells) [M] | EC50 (ZR-75-1 cells) [M] | EC50 (LCLC-97TM1 cells) [M]
1 | O=C(NS(=O)(=O)c1ccccc1-c1ccccc1)c1cc2ccc(-c3ccc(F)cc3)cc2o1 [Example 1, N-([1,1′-biphenyl]-2-sulfonyl)-6-(4-fluorophenyl)-1-benzofuran-2-carboxamide] | 1.31e-05 | 4790 | 3380 |  |  | 
2 | Cc1ccc2cc(C(=O)NS(=O)(=O)c3ccccc3-c3ccccc3)oc2c1 [Example 2, N-([1,1′-biphenyl]-2-sulfonyl)-6-methyl-1-benzofuran-2-carboxamide] | 1.11e-05 | 2220 | 882 | > 2e-05 | > 2e-05 | 
3 | Cc1cc(C)c2cc(C(=O)NS(=O)(=O)c3ccccc3-c3ccccc3C)oc2c1 [Example 6, 4,6-Dimethyl-N-(2′-methyl[1,1′-biphenyl]-2-sulfonyl)-1-benzofuran-2-carboxamide] | 5.55e-06 | 245 | 128 | > 2e-05 | > 2e-05 | 
4 | Cc1ccc(S(=O)(=O)NC(=O)c2cc3c(C)cc(C)cc3o2)c(-c2ccccc2)c1 [Example 7, 4,6-Dimethyl-N-(5-methyl[1,1′-biphenyl]-2-sulfonyl)-1-benzofuran-2-carboxamide] | 4.54e-06 | 114 | 86.5 | > 2e-05 | > 2e-05 | 
5 | O=C(NS(=O)(=O)c1ccccc1-c1ccccc1)c1cc2ccc(C(F)F)cc2o1 [Example 17, N-([1,1′-Biphenyl]-2-sulfonyl)-6-(difluoromethyl)-1-benzofuran-2-carboxamide] |  | 2580 | 1300 | > 2e-05 | 6.12e-06 | 
6 | Cc1ccc2cccc(S(=O)(=O)NC(=O)c3cc4c(F)cc(C5CC5)cc4o3)c2n1 [Example 22, 6-Cyclopropyl-4-fluoro-N-(2-methylquinoline-8-sulfonyl)-1-benzofuran-2-carboxamide] | 2.81e-07 | 22.5 | 9.48 |  | 1.26e-06 | 
7 | O=C(NS(=O)(=O)c1ccccc1OC1CC1)c1cc2c(F)cc(C3CC3)cc2o1 [Example 24, 6-Cyclopropyl-N-[2-(cyclopropyloxy)benzene-1-sulfonyl]-4-fluoro-1-benzofuran-2-carboxamide] | 2.47e-07 | 19 | 14.1 |  | 6.74e-07 | 
8 | COCCc1ccc2cc(C(=O)NS(=O)(=O)c3ccccc3-c3ccccc3)oc2c1 [Example 26, N-([1,1′-biphenyl]-2-sulfonyl)-6-(2-methoxyethyl)-1-benzofuran-2-carboxamide] | 1.56e-05 | 2850 | 1130 |  |  | 
9 | Cc1ccc2cccc(S(=O)(=O)NC(=O)c3cc4c(N(C)C)cc(C5CC5)cc4o3)c2n1 [Example 43, 6-Cyclopropyl-4-(dimethylamino)-N-[(2-methyl-8-quinolyl)sulfonyl]benzofuran-2-carboxamide] | 6.92e-06 |  | 13 | > 2e-05 | 5.64e-06 | > 2e-05
10 | CN(C)c1cc(C2CC2)cc2oc(C(=O)NS(=O)(=O)c3ccccc3-c3ccccc3)cc12 [Example 44, 6-Cyclopropyl-4-(dimethylamino)-N-(2-phenylphenyl)sulfonyl-benzofuran-2-carboxamide] | 1.16e-05 |  | 52 | > 2e-05 | 8.67e-06 | > 2e-05
11 | CCOc1ccccc1S(=O)(=O)NC(=O)c1cc2c(N(C)C)cc(C3CC3)cc2o1 [Example 45, 6-Cyclopropyl-4-(dimethylamino)-N-(2-ethoxyphenyl)sulfonyl-benzofuran-2-carboxamide] | 1.68e-05 |  | 79.9 | > 2e-05 | > 2e-05 | > 2e-05
12 | Cc1ccc2cccc(S(=O)(=O)NC(=O)c3cc4c(OC(F)F)cc(C5CC5)cc4o3)c2n1 [Example 47, 6-Cyclopropyl-4-(difluoromethoxy)-N-[(2-methyl-8-quinolyl)sulfonyl]benzofuran-2-carboxamide] | 4.65e-06 |  | 4.78 | > 2e-05 | 3.24e-06 | > 2e-05
13 | Cc1ccc2cccc(S(=O)(=O)NC(=O)c3cc4c(C(F)(F)F)cc(C5CC5)cc4o3)c2n1 [Example 50, 6-Cyclopropyl-N-[(2-methyl-8-quinolyl)sulfonyl]-4-(trifluoromethyl)benzofuran-2-carboximide] | 1.95e-06 |  | 5.55 | > 2e-05 | 1.38e-05 | > 2e-05
14 | COc1ccc(C(C)(C)C)cc1S(=O)(=O)NC(=O)c1cc2c(F)cc(C3CC3)cc2o1 [Example 66, N-((5-(tert-butyl)-2-methoxyphenyl)sulfonyl)-6-cyclopropyl-4-fluorobenzofuran-2-carboxamide] | 4.96e-08 |  | 3.31 | > 2e-05 | 1.76e-07 | 2.64e-07
